Measurements taken from patent publication US20030005484A1, “Microbiocidal and pesticidal aromatic aldehydes” (ProGuard, Inc., priority 1994, published 2003).

Key:
[1] = test system: grape phylloxera eggs; assay: whole plant or invertebrate; conditions: for eggs that did not hatch completely (IH) / nymphs that died in the shell (DIS): 7 days
Procedure: Mixed age groups of 60 grape phylloxera eggs were established on filter paper (Whatman #1, 5.5 cm circles) in 50×9 mm sealed plastic petri dishes treated with 100 μl of solution. A selected concentration of a test formulation of 400 μl was added to the filter disk and the dish closed with the petri dish cover and placed in a plastic container box. After 6 hours, the box was placed in an environmental chamber at 24° C. in the dark. The eggs were placed in groups of 10. After one week, the percentage of hatch is determined. In an initial test, doses from 0.1 to 25,000 ppm cinnamic aldehyde in 6% NaHCO3 and 2% Tween 80 were evaluated with a single group of eggs at each dosage. Three replicates of the experiment were performed. […] LD50 and LD95 were determined by probit analysis.
Grape phylloxera eggs were treated with cinnamaldehyde (CNMA) in a 6% NaHCO3, 2% Tween-80 formulation in a laboratory bioassay. Mortality of the eggs was indicated by failure of the egg shell to split. […] Leaves of one-year-old greenhouse Vitis vinifera cultivar Merlot vines heavily infested with grape phylloxera were sprayed to run-off with a CNMA treatment using the same formulation. […] Roots taken from plants 1, 2 and 5 weeks after CNMA or other treatments were placed in Petri dish bioassays and infested with untreated phylloxera eggs.
Eggs of various age classes were placed on Whatman #1 filter paper moistened with enough treatment solution to form a meniscus about halfway up the sides of the eggs. The pieces of filter paper with eggs were maintained in sealed plastic Petri dishes at […] until they were 7 days old and then hatched individuals were counted. Hatch was considered successful if the […]

[2] = test system: grape phylloxera; assay: reinoculation bioassay of roots excised from leaf-treated vines; assay type: in vivo, Daktulosphaira vitifoliae; conditions: for phylloxera counted: 1st instar / phylloxera counted: 2nd instar / phylloxera counted: 3rd instar / phylloxera counted: 4th instar / phylloxera counted: Adults / phylloxera counted: Eggs: roots taken 5 weeks after treatment, 25 day bioassay
Text: […] For this bioassay, root sections were inoculated with 20 eggs and the roots maintained as the original colonies were maintained (see description above). After 25 days, the number of individual phylloxera of each age class were counted.

[3] = test system: thrips insects (Frankliniella occidentalis); assay: residual activity on filter paper against thrips; assay type: in vivo; conditions: residue on filter paper, rehydrated 24 and 72 hours after spraying; thrips mortality after one hour
Procedure: In the first experiment, two ml of two concentrations of CNMA (0.3 and 1%) were sprayed on filter paper (Whatman). As a negative control, two ml of water also were sprayed on filter paper. Twenty-four hours later, two ml of water were sprayed on treatment and control filter paper, which were then dried for 30 min. Approximately 30 thrips insects (Frankliniella occidentalis) were introduced and the number of F. occidentalis were observed after one hour. Mean mortality was calculated for each treatment.
After 72 hours, the treatment filter papers were flipped over and only the negative control filter paper and the filter paper treated with 1% CNMA were sprayed with 2 ml of water and allowed to dry for 30 minutes. Approximately 30 thrips were introduced to the two treated filter papers and after one hour the number of dead F. occidentalis were observed and the mean mortality calculated for each treatment. A similar assay was conducted using a-hexyl cinnamaldehyde. Mean mortality was higher for rehydrated filter papers compared to non-rehydrated filter papers over time.

[4] = test system: leafhoppers; assay: leafhoppers on cabernet sauvignon grapevines, 0.3% spray; assay type: in vivo; conditions: 0.3% CNMA; two days after spraying; untreated 2.46
Procedure: The effect of 0.3% cinnamic aldehyde on leafhoppers and spider mites on grapevine leaves was examined. 30% cinnamic aldehyde was diluted 1:100 in water and sprayed one time on a 1 acre block of cabernet sauvignon grapevines in a vineyard using a 300 gal Pul-Blast rsprayer at 160 psi. 120 gal. were applied to one acre of vineyard. As a control, a one-acre block remained untreated. Blocks were pseudo-replicated so as to obtain an indication of the reliability of the treatment. Prior to treatment mites on leaves were pre-counted using a dissecting microscope. Leafhopper numbers also were determined in the field prior to treatment. Two days after spraying, two leaves, one from the basal portion and one from the proximal portion of the vine were examined from 16 vines from 2 rows for each treatment. Leaf samples also were taken from both sides of the vines (north and south) to include variation due to vine exposure. […]

[5] = test system: pacific mites; assay: pacific mites on Chardonnay grapes, 0.4% spray; assay type: in vivo
Procedure: The effect of 0.4% cinnamic aldehyde on powdery mildew and pacific mites on grapes was examined. Cinnamic aldehyde was diluted to 0.4% in water and sprayed onto a 1.8 acre test plot of Chardonnay grapevines with a tractor drawn, PTO powered sprayer, spraying at approximately 100 psi at a rate of 150 gal./acre. A 3 acre untreated plot served as a negative control. Additional controls included treatment of a 3.8 acre plot with stylet oil and a plot treated with a mix of Rubigan, Omite, and stylet oil, which cost appriximately $60.00/acre. Spray cards were placed randomly through the test block. Ten fruit clusters, which were generally completely covered with powdery mildew, in each of the four fields were flagged. […] Therefore, cinnamic aldehyde was effective at controlling both powdery mildew and pacific mites on grapes.

[6] = 10 ppm in 6% NaHCO3, 2% Tween 80
[7] = 100 ppm in 6% NaHCO3, 2% Tween 80
[8] = CNMA 0.4% in water, 150 gal./acre, controls stylet oil, chemical mix

In the case of `O=C/C=C/c1ccccc1` [cinnamic aldehyde], the “7 day EC50, egg mortality (failure of the egg shell to split)” value ([1]; 6% NaHCO3, 2% Tween-80 formulation) is reported as 115 ppm, the “eggs that did not hatch completely (IH)” value [1, 6] is reported as 100% and the “nymphs that died in the shell (DIS)” value [1, 6] is reported as “none died in the shell”. The “eggs that did not hatch completely (IH)” value [1, 7] was 12%, the “nymphs that died in the shell (DIS)” value [1, 7] was 88% and the “nymphs that died in the shell (DIS)” value ([1]; 100 ppm in 6% NaHCO3, 2% Tween 80 plus 0.86 ml of 10 brix saponin solution) was 93%. The “nymphs that died in the shell (DIS)” value ([1]; 5000 ppm aldehyde in 6% NaHCO3, 2% Tween 80) was “all nymphs died in the shell”, the “Approximate Percent Mortality, egg test” value ([1]; CNMA 100 ppm, Days of Treatment 1) was 8% and the “Approximate Percent Mortality, egg test” value ([1]; CNMA 100 ppm, Days of Treatment 2) was 0%. The “Approximate Percent Mortality, egg test” value ([1]; CNMA 100 ppm, Days of Treatment 3) was 0%, the “Approximate Percent Mortality, egg test” value ([1]; CNMA 100 ppm, Days of Treatment 4) was 6% and the “Approximate Percent Mortality, egg test” value ([1]; CNMA 100 ppm, Days of Treatment 5) was 25%. The “Approximate Percent Mortality, egg test” value ([1]; CNMA 180 ppm, Days of Treatment 1) was 100%, the “Approximate Percent Mortality, egg test” value ([1]; CNMA 180 ppm, Days of Treatment 2) was 0% and the “Approximate Percent Mortality, egg test” value ([1]; CNMA 180 ppm, Days of Treatment 3) was 0%. The “Approximate Percent Mortality, egg test” value ([1]; CNMA 180 ppm, Days of Treatment 4) was 47%, the “Approximate Percent Mortality, egg test” value ([1]; CNMA 180 ppm, Days of Treatment 5) was 72% and the “Approximate Percent Mortality, egg test” value ([1]; CNMA 320 ppm, Days of Treatment 1) was 100%. For the same molecule, the “Approximate Percent Mortality, egg test” value ([1]; CNMA 320 ppm, Days of Treatment 2) was 37%, the “Approximate Percent Mortality, egg test” value ([1]; CNMA 320 ppm, Days of Treatment 3) was 28% and the “Approximate Percent Mortality, egg test” value ([1]; CNMA 320 ppm, Days of Treatment 4) was 85%. For the same molecule, the “Approximate Percent Mortality, egg test” value ([1]; CNMA 320 ppm, Days of Treatment 5) was 100%, the “approximate egg hatch LD 50” value ([1]; egg tests with CNMA analogs) was 320 ppm and the “phylloxera counted: 1st instar” value ([2]; 300 ppm leaf treatment) was 0. For the same molecule, the “phylloxera counted: 2nd instar” value ([2]; 300 ppm leaf treatment) was 6, the “phylloxera counted: 3rd instar” value ([2]; 300 ppm leaf treatment) was 5 and the “phylloxera counted: 4th instar” value ([2]; 300 ppm leaf treatment) was 0. For the same molecule, the “phylloxera counted: Adults” value ([2]; 300 ppm leaf treatment) was 4, the “phylloxera counted: Eggs” value ([2]; 300 ppm leaf treatment) was 16 and the “phylloxera counted: 1st instar” value ([2]; 1000 ppm leaf treatment) was 0. For the same molecule, the “phylloxera counted: 2nd instar” value ([2]; 1000 ppm leaf treatment) was 1, the “phylloxera counted: 3rd instar” value ([2]; 1000 ppm leaf treatment) was 4 and the “phylloxera counted: 4th instar” value ([2]; 1000 ppm leaf treatment) was 2. The “phylloxera counted: Adults” value ([2]; 1000 ppm leaf treatment) was 1, the “phylloxera counted: Eggs” value ([2]; 1000 ppm leaf treatment) was 2 and the “phylloxera counted: 1st instar” value ([2]; 3000 ppm leaf treatment) was 0. The “phylloxera counted: 2nd instar” value ([2]; 3000 ppm leaf treatment) was 2, the “phylloxera counted: 3rd instar” value ([2]; 3000 ppm leaf treatment) was 1 and the “phylloxera counted: 4th instar” value ([2]; 3000 ppm leaf treatment) was 1. For the same molecule, the “phylloxera counted: Adults” value ([2]; 3000 ppm leaf treatment) was 0, the “phylloxera counted: Eggs” value ([2]; 3000 ppm leaf treatment) was 0 and the “phylloxera counted: 1st instar” value ([2]; 10,000 ppm leaf treatment) was 0. The “phylloxera counted: 2nd instar” value ([2]; 10,000 ppm leaf treatment) was 2, the “phylloxera counted: 3rd instar” value ([2]; 10,000 ppm leaf treatment) was 0 and the “phylloxera counted: 4th instar” value ([2]; 10,000 ppm leaf treatment) was 0. The “phylloxera counted: Adults” value ([2]; 10,000 ppm leaf treatment) was 0, the “phylloxera counted: Eggs” value ([2]; 10,000 ppm leaf treatment) was 0 and the “establishment of new phylloxera populations on roots from treated plants” value ([2]; roots taken 1, 2 and 5 weeks after treatment, infested with untreated eggs) was “not from the CNMA-treated plants”. The residual activity [3] was “have residual activity”, the LEAFHOPPERS/LEAF [4] was 0.16 and the “% INHIBITION (MITES)” value [5, 8] was 96%. The “MITES POST-SPRAY” value [5, 8] was 1.6 and the “MITES PRE-SPRAY” value ([5]; baseline, CNMA 0.4% plot, stylet oil plot, chemical mix plot) was 36.
